Test results taken from PubChem BioAssay AID1645863 (Buhrlage Lab, Dana-Farber Cancer Institute and Novartis …, 2021).
pIC50: −log10 of the molar value. Calls of active or inactive are those of the source. No rule for the calls is given here.

Molecular target: Ubiquitin carboxyl-terminal hydrolase 10 (Homo sapiens) (UniProt Q14694)
Test: primary hit verification, biochemical, ubiquitin-specific protease 10 deubiquitylase inhibitors, concentration-effect titration (AID 1645863);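 also: potency values describe inhibition of USP10 cleavage of a fluorogenic ubiquitin substrate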
Settings: USP10 deubiquitinase enzymatic assay

Chain of Ubiquitin carboxyl-terminal hydrolase 10 (Homo sapiens) (Q14694 whole entry, looked up): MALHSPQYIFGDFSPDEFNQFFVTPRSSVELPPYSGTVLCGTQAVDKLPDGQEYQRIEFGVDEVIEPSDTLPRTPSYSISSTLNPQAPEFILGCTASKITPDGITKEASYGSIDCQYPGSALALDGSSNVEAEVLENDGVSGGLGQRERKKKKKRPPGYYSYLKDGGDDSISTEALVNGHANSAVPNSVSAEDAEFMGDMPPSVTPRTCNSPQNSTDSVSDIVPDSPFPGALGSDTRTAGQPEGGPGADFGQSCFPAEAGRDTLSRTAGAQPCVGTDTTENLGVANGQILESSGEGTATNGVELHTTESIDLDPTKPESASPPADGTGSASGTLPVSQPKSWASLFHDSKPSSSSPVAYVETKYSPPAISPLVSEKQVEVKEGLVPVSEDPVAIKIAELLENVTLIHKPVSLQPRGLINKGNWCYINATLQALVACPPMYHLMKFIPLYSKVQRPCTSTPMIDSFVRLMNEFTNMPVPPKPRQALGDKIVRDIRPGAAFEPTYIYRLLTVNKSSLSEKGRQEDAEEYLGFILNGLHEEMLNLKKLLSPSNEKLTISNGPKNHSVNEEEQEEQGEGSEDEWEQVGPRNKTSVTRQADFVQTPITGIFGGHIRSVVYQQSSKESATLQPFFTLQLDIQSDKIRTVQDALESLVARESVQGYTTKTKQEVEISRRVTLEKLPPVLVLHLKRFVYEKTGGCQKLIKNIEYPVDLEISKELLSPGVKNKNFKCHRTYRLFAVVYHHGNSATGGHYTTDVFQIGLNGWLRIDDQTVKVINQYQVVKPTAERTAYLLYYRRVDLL

SMILES	pIC50	IC50
Cc1ccc(Cn2cc(-c3noc(C(=O)Nc4cc(F)ccc4F)n3)nn2)cc1	4.57	
COc1ccc(NS(=O)(=O)c2cc(NC(=O)CC(=O)c3ccc([N+](=O)[O-])cc3)ccc2C)cc1		> 40 µM (inactive)
O=C(c1cnc2ccccc2n1)N1CCC(S(=O)(=O)c2ccc(-c3ccco3)cc2)CC1		> 40 µM (inactive)
O=C(CCCn1c(=O)c2sccc2n(CC(=O)NCCC2=CCCCC2)c1=O)NCc1ccc2c(c1)OCO2	4.86	
O=C(COC(=O)c1cccc([N+](=O)[O-])c1)Nc1cccc(Oc2ccccc2)c1		> 40 µM (inactive)
COc1cc2c(=O)n(Cc3ccccc3)c(=O)n(CC(=O)N3CCCc4ccccc43)c2cc1OC	4.90	
CCCn1c(=O)c2sccc2n2c(CCC(=O)N3CCc4ccccc4C3)nnc12		> 40 µM (inactive)
N#C/C(=C\c1ccc(OCc2cccc(C(=O)O)c2)cc1)c1ccc(F)cc1	4.69	
CCn1cc2c(n1)c(=O)n(Cc1ccc(C)cc1)c(=O)n2CC(=O)Nc1ccc(F)cc1		> 40 µM (inactive)
CSc1ccc(CNC(=O)Cn2nc(C)c3c(C)n(-c4ccccc4)nc3c2=O)cc1	4.99	
O=C(c1ccc2occc2c1)N1CCC(S(=O)(=O)c2ccc(-c3ccco3)cc2)CC1		> 40 µM (inactive)
CCOC(=O)C1CCN(C(=O)c2ccc3c(c2)NC(=O)C2CCCN32)CC1 (configuration not stated)		> 40 µM (inactive)
O=c1[nH]cccc1NS(=O)(=O)c1ccc(F)cc1		> 40 µM (inactive)
Nc1c(-c2nc(-c3ccccc3Cl)no2)nnn1-c1ccc(Cl)cc1	4.94	
O=C(COc1ccc(Cl)cc1)Nc1noc(-c2ccccc2)n1	4.49	
O=C(Cn1c(=O)[nH]c2c(-c3ccc(F)cc3)c[nH]c2c1=O)NCc1ccc(F)cc1		> 40 µM (inactive)
CC(c1ccccc1)N1CC(O)=C(c2nc3ccccc3s2)C1=N (configuration not stated)		> 40 µM (inactive)
Cc1ccc2cc(-c3noc(CCC(=O)NC4CCCC4)n3)c(=O)[nH]c2c1		> 40 µM (inactive)
COc1ccccc1N1CCN(C(=O)c2ccc3c(=O)n(CCc4ccccc4)c(=O)[nH]c3c2)CC1		> 40 µM (inactive)
NC(=O)C1(N2CCCCC2)CCN(c2ncc3c(=O)n(-c4ccccc4)c(=O)[nH]c3n2)CC1		> 40 µM (inactive)
COc1ccc(Cl)cc1NC(=O)c1nc(-c2cn(-c3ccccc3)nn2)no1	4.85	
O=C1C(=O)N(c2nc3ccc(F)cc3s2)C(c2ccc(F)cc2)/C1=C(\O)c1ccc(F)cc1 (configuration not stated)	4.94	
Cc1cccc(NC(=O)c2noc3c2CCc2sccc2-3)n1		> 40 µM (inactive)

SMILES	pIC50	IC50
CN(C(=O)C1(c2ccccc2)CC1)c1nc2c(s1)CCc1occc1-2		> 40 µM (inactive)
Cc1cccc(NC(=O)CCCc2nnc3c(=O)n(-c4cccc(F)c4)ccn23)c1		> 40 µM (inactive)
Cc1cc(OCC(=O)Nc2ccc3c(c2)NC(=O)CO3)ccc1Cl	4.81	
C[C@H](NC(=O)Cc1ccccc1F)c1nc2cc(-c3ccccc3F)ncn2n1	4.44	
O=C1CC(c2nc3ccccc3n2CCOc2ccc(Cl)cc2)CN1c1ccccc1 (configuration not stated)	4.41	
CCOc1ccccc1NC(=O)Cn1c(=O)n(CCCC(=O)NCc2ccc(C)cc2)c(=O)c2sccc21		> 40 µM (inactive)
O=C(Cn1nc2c3c4c(sc3ncn2c1=O)CCCCC4)Nc1ccc(Cl)cc1F	4.96	
O=C(c1cnc2[nH][nH]c(=O)c2c1)c1cc(Cl)cc(Cl)c1O	5.24	
Cc1ccc(NC(=O)c2cc(-c3ccncc3)n[nH]2)cc1Cl		> 40 µM (inactive)
COc1cccc(N2CCCN(C(=O)c3ccc4nc(C)[nH]c4c3)CC2)c1		> 40 µM (inactive)
COc1cccc(NC(=O)c2cn(-c3cc(N4CCCC4)ncn3)cn2)c1		> 40 µM (inactive)
COc1ccc(-c2cc(-c3ccc(F)cc3)[nH]c(=O)c2C#N)cc1	4.74	
O=C(CSc1nc2c(cnn2-c2ccccc2)c(=O)[nH]1)Nc1ccc(Cl)cc1F		> 40 µM (inactive)
CCOc1ccc(CCNC(=O)Cn2c(-c3ccc(F)cc3)cc(C(C)=O)c2C)cc1OCC		> 40 µM (inactive)
COc1ccc(NC(=O)Cn2c(C)cc(=O)n3nc(-c4cccc(C)c4)nc23)cc1	4.43	
CCCCCCC1CCC(O)CC(O)CC(O)CC(O)CC(O)CC(O)/C(C)=C/C=C\C=C/C=C/C=C/[C@H](O)[C@@H](C)OC1=O (some centres not stated)		> 40 µM (inactive)
Cc1ccc(-n2nc(C)c3c2NC(=O)CC3C(=O)c2cc3ccccc3o2)cc1C (configuration not stated)		> 40 µM (inactive)
O=C(Nc1ccc2c(c1)OCCO2)C1CCC(Cn2cnc3ccccc3c2=O)CC1 (configuration not stated)		> 40 µM (inactive)
Cc1ccc2[nH]c(=O)c(CN(CC3COCCO3)S(=O)(=O)c3ccc(F)cc3)cc2c1 (configuration not stated)		> 40 µM (inactive)
CCOC(=O)C1CCN(Cc2cc(=O)oc3cc(O)c(O)cc23)CC1	5.77	
O=C(Cn1c(=O)n(Cc2ccc3c(c2)OCO3)c(=O)c2ccccc21)NCc1ccco1	4.52	
COc1ccc(-n2ccn3c(CCC(=O)Nc4cccc(C)c4)nnc3c2=O)cc1		> 40 µM (inactive)
COc1cccc(-c2cncc(C3CCN(S(=O)(=O)N(C)C)CC3)n2)c1		> 40 µM (inactive)

SMILES	pIC50	IC50
Cc1ccc(C2c3[nH]c4ccccc4c3C[C@H]3C(=O)N(c4ccc(C(=O)NCCc5ccccc5)cc4)C(=O)N23)cc1 (some centres not stated)		> 40 µM (inactive)
COc1cc(CC(=O)Nc2ccccc2N2CCOCC2)cc(OC)c1OC		> 40 µM (inactive)
O=C(c1ccncc1)N1CCN(CC2CC=CCC2)CC1 (configuration not stated)		> 40 µM (inactive)
COc1ccc(Sc2nc3ccccc3n3cnnc23)cc1		> 40 µM (inactive)
C=C/C(C)=C/[C@@]1(C)SC(=O)C(C)=C1O	4.98	
Cc1cc(CN2CCCCC2c2cc(=O)n3ccnc3[nH]2)no1 (configuration not stated)		> 40 µM (inactive)
O=C(NC(Cc1ccccc1)c1nc2ccccc2[nH]1)C1CC1 (configuration not stated)		> 40 µM (inactive)
CCCc1cc(=O)n2[nH]c(COc3ccccc3)c(-c3ccccc3)c2n1	4.85	
Cc1cc(C)c2nc3c(cc2c1)CN(Cc1ccco1)C(=O)O3		> 40 µM (inactive)
CN1CC(c2ncn[nH]2)c2cc(C(=O)NCc3cccc(F)c3)ccc21 (configuration not stated)		> 40 µM (inactive)
O=C(NCCN1CCOCC1)c1cn2cc(Cl)ccc2n1		> 40 µM (inactive)
CCOc1cc2c(cc1OCC)C(c1cc3c(cc1Br)OCO3)NCC2 (configuration not stated)		> 40 µM (inactive)
COc1ccc(-c2nc(SCC(=O)Oc3c(C)cccc3C)n3[nH]c(=O)cc3n2)cc1	5.01	
CCOc1ccc2c(c1)c(=O)c(C(=O)c1ccccc1)cn2CC(=O)Nc1ccccc1		> 40 µM (inactive)
COc1ccc(NC(=O)c2nnc(C(=O)NCCN3CCCCCC3)s2)cc1		> 40 µM (inactive)
O=C(NCCc1cccnc1)c1ccn(-c2ccc3ccccn23)n1		> 40 µM (inactive)
CC(C)=CCCC1(C)C=Cc2c(O)c3c(c(CC=C(C)C)c2O1)OC12C(=CC4CC1C(C)(C)OC2(C/C=C(/C)C(=O)O)C4=O)C3=O (configuration not stated)	5.02	
CC(=O)[C@H]1c2c(c(O)c3c(O)cccc3c2-c2c3c(c(O)c4c(O)cccc24)C(=O)C[C@](C)(O)[C@H]3C(C)=O)C(=O)C[C@]1(C)O	4.41	
CC(=O)Nc1ccc(NC(=O)c2ccc3c(c2)CC(c2ccccc2)OC3=O)cc1 (configuration not stated)	4.84	
COc1ccccc1CNC(=O)CCCCn1c(=O)c2ccccc2n(Cc2ccc(C)cc2)c1=O	4.68	
Cc1ccc(NC(=O)CSc2nnc(-c3n[nH]c4c3CCC4)n2N)cc1C	4.58	
COc1ccc(-c2cc(C(=O)Nc3ccnn3Cc3ccccc3)no2)cc1		> 40 µM (inactive)
Cc1ccc(C(=O)Nc2ccc3c(c2)Sc2ncccc2C(=O)N3C(C)C)cc1C		> 40 µM (inactive)

SMILES	pIC50	IC50
CCOC(=O)c1ccc(NC(=O)Cn2c(=O)n(CC(=O)NCc3ccco3)c(=O)c3ccccc32)cc1	4.79	
O=C(Nc1cccc(F)c1)Nc1cccc(-c2nnc(-c3ccccc3)o2)c1	4.74	
CCN(CC)C(=O)c1sc(NC(=O)c2cc(-c3ccccc3Cl)nc3ccccc23)c(C(N)=O)c1C		> 40 µM (inactive)
O=C(CSc1oc(-c2ccc(F)cc2)nc1S(=O)(=O)c1ccc(F)cc1)Nc1ccc(F)cc1	4.46	
O=C(c1[nH]nc2c1COc1ccccc1-2)N1CCN(c2ccccn2)CC1		> 40 µM (inactive)
CCc1ccc(NC(=O)Cc2nnc3cc(-c4nc(C)no4)ccn23)cc1	4.90	
Cc1ccc(C(=O)NCc2ccc(C(=O)Nc3ccc(Cl)cc3)o2)cc1		> 40 µM (inactive)
CN1C(=O)COc2cc(-c3noc(C(=O)NCc4ccc(F)cc4)n3)ccc21	4.60	
Cc1cc(C)c(NC(=O)Cn2c(=O)n(CCC(=O)NCc3ccc4c(c3)OCO4)c(=O)c3sccc32)c(C)c1	4.67	
Cc1cc(=O)n(C)c2c(O)c3c(cc12)c(C)cc(=O)n3C		> 40 µM (inactive)
COc1ccc(N2CC(c3nnc(NC(=O)CCc4ccccc4)s3)CC2=O)cc1 (configuration not stated)		> 40 µM (inactive)
Cc1ccccc1NC(=O)Cn1c(=O)n(-c2ccc(CC(=O)NCCc3ccccc3)cc2)c(=O)c2sccc21	4.89	
COc1ccc(CCNC(=O)Cn2c(=O)c3sccc3n(Cc3cccc([N+](=O)[O-])c3)c2=O)cc1OC	4.80	
Cc1ccc(NC(=O)c2cc(-c3ccccn3)nc3c(Cl)cccc23)nc1		> 40 µM (inactive)
Cn1cc(C(=O)Nc2ccccc2)c2[nH]c(=O)n(Cc3ccccc3)c(=O)c21		> 40 µM (inactive)
COc1ccc(NC(=O)CC(=O)c2ccc([N+](=O)[O-])cc2)cc1S(=O)(=O)Nc1ccc(Br)cc1	4.64	
CSc1ncccc1C(=O)NC1(O)C(=O)c2ccccc2C1=O	5.01	
O=C(Cc1ccc(-n2c(=O)c3ccccc3n(Cc3cccc(F)c3)c2=O)cc1)NC1CCCC1		> 40 µM (inactive)
O=C(Nc1cccc(Br)c1)c1cc(-c2cccnc2)n[nH]1	4.70	
COc1ccc(-c2noc(C3(c4ccc(F)cc4)CCOCC3)n2)cc1		> 40 µM (inactive)
COc1ccc(C)cc1NC(=O)Nc1nnc(CC(=O)NCc2ccccc2)s1		> 40 µM (inactive)
CC[C@H](C)[C@H](NC(=O)[C@H]([C@@H](C)CC)N(C)C(C)=O)C(=O)N[C@H](C(=O)N[C@@H](CC(C)C)C(=O)C1(C)CO1)[C@@H](C)O (some centres not stated)		> 40 µM (inactive)
Cc1cc(N2CCN(c3ncccn3)CC2)nc2ccc(NC(=O)Cn3nc([N+](=O)[O-])c(Br)c3C)cc12		> 40 µM (inactive)
